Like-named read-outs stand apart in the source and are kept apart here.
Experiments:
[1] = test system: primary multiple myeloma blast cells; experiment: FACS cytotoxicity assay, autologous T cell-mediated killing of primary multiple myeloma blast cells; assay type: cell-based, human; settings: for EC50: read-out: MM Lysis EC50
Procedure: In order to monitor the specific killing of multiple myeloma cells by flow cytometry, bone marrow mononuclear cells (BMMC) from multiple myeloma patients were plated on human stromal cells (HS5) and rested overnight at 37 C. Separately, matching patient peripheral blood mononuclear cells (PBMC) were thawed and cultured in supplemented RPMI media at 1×10^6 cells/mL overnight at 37° C. in order to enrich for lymphocytes by depleting adherent cells. The next day, BMMC were co-incubated with adherent cell-depleted naïve PBMC on stromal cells (HS5) and a serial 10× dilution of BCMA×CD3 bispecific or 1-arm CD3 isotype control (starting concentration 66.7 nM) at 37° C. Cells were removed from cell culture plates at day 3, 4 or 7 and analyzed by FACS. For the assessment of specificity of killing, multiple myeloma cells were gated as single, live, CD90 negative (to exclude stromal cells), CD2 negative, CD56 positive. CD45 was low on multiple myeloma cells in most samples except MM455. Percent of live target cells was reported for the calculation of adjusted survival as follows: Adjusted survival=(R1/R2)*100, where R1=% live target cells in the presence of antibody, and R2=% live target cells in the absence of test antibody.
T cells were gated as CD2 positive, CD56 negative and either CD4 or CD8 positive. T cell activation was reported as the percent of CD25+CD4 or CD8 T cells out of total CD4 or CD8 T cells.

[2] = test system: BCMA-expressing NCI-H929 multiple myeloma tumors; experiment: Xenogenic tumor model, NCI-H929 + human PBMC s.c. in NSG mice, dose response, treatment from implantation (Example 11); assay type: in vivo, mouse
Procedure: To determine the in vivo efficacy of anti-BCMA×anti-CD3 bispecific antibodies (Abs), a xenogenic tumor study was performed. Immunodeficient NOD.Cg-Prkdc^ScidII2rg^tm1Wjl/SzJ (NSG) mice were subcutaneously implanted with a mixture of 10×10^6 BCMA-expressing NCI-H929 human multiple myeloma tumor cells and 0.5×10^6 human peripheral blood mononuclear cells (PBMC) isolated from a normal, healthy donor. […] The mice were administered these Abs twice per week for a total of seven doses, and tumor growth was assessed over 60 days. While BCMA+NCI-H929 tumors grew similarly in the vehicle- and CD3-binding control-treated mice, both anti-BCMA×anti-CD3 Abs that were tested prevented the growth of tumors in a dose-dependent manner in vivo.
Implantation and measurement of xenogenic tumors: NSG mice were subcutaneously implanted with a mixture of 10×10^6 BCMA-expressing NCI-H929 multiple myeloma cells and 0.5×10^6 PBMC derived from a normal, healthy donor. […] The mice were administered Abs twice per week for a total of seven doses. Tumor growth was measured with calipers twice per week for the duration of the experiment.
Calculation of xenogenic tumor growth and inhibition: In order to determine tumor volume by external caliper, the greatest longitudinal diameter (length in mm) and the greatest transverse diameter (width in mm) were determined. Tumor volumes based on caliper measurements were calculated by the formula: Volume (mm^3)=(length× width^2)/2.

[3] = test system: BCMA+ OPM-2-luciferase tumors; experiment: Xenogenic tumor model, i.v. OPM-2-luciferase in PBMC-engrafted NSG mice, bioluminescence (Example 15); assay type: in vivo, mouse; settings: 0.4 mg/kg
Procedure: (§1) To determine the in vivo efficacy of anti-BCMA×anti-CD3 bispecific antibodies (Abs), a xenogenic tumor study was performed. On day 0, immunodeficient NOD.Cg-Prkdc^scidII2rg^tm1Wjl/SzJ (NSG) mice were intravenously administered 2×10^6 BCMA^+ OPM-2 human multiple myeloma tumor cells that were engineered to also express firefly luciferase (OPM-2-luciferase cells). On day 10, the mice were intraperitoneally injected with 4×10^6 human peripheral blood mononuclear cells (PBMC) from a normal, healthy donor. […] The mice were administered these Abs twice more on days 25 and 28, for a total of three doses. Tumor growth was assessed through day 61 by measuring tumor bioluminescence (BLI) in anesthetized animals. As a positive control, a group of mice (n=5) was given only OPM-2-luciferase cells, but not PBMC or antibody.
as §1, with “Implantation and measurement” for “To determine the in vivo efficacy”, “of” for “of anti-BCMA×anti-CD3 bispecific antibodies (Abs), a”, “tumors:” for “tumor study was performed.”, “NOD.Cg-Prkdc^scidII2rg^tm1Wkl/SzJ” for “NOD.Cg-Prkdc^scidII2rg^tm1Wjl/SzJ”
Measurement of xenogenic tumor growth: BLI imaging was used to measure tumor burden. Mice were injected IP with 150 mg/kg of the luciferase substrate D-luciferin suspended in PBS. Five minutes after this injection, BLI imaging of the mice was performed under isoflurane anesthesia using the Xenogen IVIS system. Image acquisition was carried out with the field of view at D, subject height of 1.5 cm, and medium binning level with automatic exposure time determined by the Living Image Software. BLI signals were extracted using Living Image software: regions of interest were drawn around each tumor mass and photon intensities were recorded as p/s/cm2/sr.

REGN5459: anti-BCMA×anti-CD3 bispecific antibody: mAb21581 BCMA heavy chain, mAb7221G20 CD3 heavy chain and common light chain; SEQ ID NOs 126, 128, 129
EC50 ([1]; Sample MM2, E:T 1.4, 7 days): 7.24 nM | % MM lysis at 66 nM ([1]; Sample MM2, newly diagnosed, E:T 1.4, 7 days): 85% | EC50 ([1]; Sample MM369, E:T 0.3, 3 days): 0.496 nM | % MM lysis at 66 nM ([1]; Sample MM369, newly diagnosed, E:T 0.3, 3 days): 94% | EC50 ([1]; Sample MM453, E:T 2.4, 3 days): 1.19 nM | % MM lysis at 66 nM ([1]; Sample MM453, newly diagnosed, E:T 2.4, 3 days): 80% | EC50 ([1]; Sample MM455, E:T 0.4, 3 days): 79.4 nM | % MM lysis at 66 nM ([1]; Sample MM455, progression, treated, E:T 0.4, 3 days): 52% | Average Tumor Size (mm3) ± SEM on Day 4 ([2]; 0.04 mg/kg): 33.0 ± 4.4 mm3 | Average Tumor Size (mm3) ± SEM on Day 7 ([2]; 0.04 mg/kg): 8.4 ± 4.0 mm3 | Average Tumor Size (mm3) ± SEM on Day 12 ([2]; 0.04 mg/kg): 0 ± 0 mm3 | Average Tumor Size (mm3) ± SEM on Day 19 ([2]; 0.04 mg/kg): 23.1± 23.1 mm3 | Average Tumor Size (mm3) ± SEM on Day 22 ([2]; 0.04 mg/kg): 69.5 ± 69.5 mm3 | Average Tumor Size (mm3) ± SEM on Day 26 ([2]; 0.04 mg/kg): 156.7 ± 156.7 mm3 | Average Tumor Size (mm3) ± SEM on Day 29 ([2]; 0.04 mg/kg): 226.6 ± 226.6 mm3 | Average Tumor Size (mm3) ± SEM on Day 4 ([2]; 0.4 mg/kg): 19.6 ± 4.4 mm3 | Average Tumor Size (mm3) ± SEM on Day 12 ([2]; 0.4 mg/kg): 0 ± 0 mm3 | Average Tumor Size (mm3) ± SEM on Day 15 ([2]; 0.4 mg/kg): 0 ± 0 mm3 | Average Tumor Size (mm3) ± SEM on Day 19 ([2]; 0.4 mg/kg): 0 ± 0 mm3 | Average Tumor Size (mm3) ± SEM on Day 22 ([2]; 0.4 mg/kg): 0 ± 0 mm3 | Average Tumor Size (mm3) ± SEM on Day 26 ([2]; 0.4 mg/kg): 0 ± 0 mm3 | Average Tumor Size (mm3) ± SEM on Day 29 ([2]; 0.4 mg/kg): 0 ± 0 mm3 | Average Tumor Size (mm3) ± SEM on Day 34 ([2]; 0.4 mg/kg): 0 ± 0 mm3 | Average Tumor Size (mm3) ± SEM on Day 39 ([2]; 0.4 mg/kg): 0 ± 0 mm3 | Average Tumor Size (mm3) ± SEM on Day 42 ([2]; 0.4 mg/kg): 0 ± 0 mm3 | Average Tumor Size (mm3) ± SEM on Day 46 ([2]; 0.4 mg/kg): 0 ± 0 mm3 | Average Tumor Size (mm3) ± SEM on Day 55 ([2]; 0.4 mg/kg): 0 ± 0 mm3 | Average Tumor Size (mm3) ± SEM on Day 60 ([2]; 0.4 mg/kg): 0 ± 0 mm3 | Average Tumor Size (mm3) ± SEM on Day 4 ([2]; 4 mg/kg): 21.8 ± 3.4 mm3 | Average Tumor Size (mm3) ± SEM on Day 7 ([2]; 4 mg/kg): 8.0 ± 4.3 mm3 | Average Tumor Size (mm3) ± SEM on Day 12 ([2]; 4 mg/kg): 1.7 ± 1.7 mm3 | Average Tumor Size (mm3) ± SEM on Day 15 ([2]; 4 mg/kg): 0 ± 0 mm3 | Average Tumor Size (mm3) ± SEM on Day 19 ([2]; 4 mg/kg): 0 ± 0 mm3 | Average Tumor Size (mm3) ± SEM on Day 22 ([2]; 4 mg/kg): 0 ± 0 mm3 | Average Tumor Size (mm3) ± SEM on Day 26 ([2]; 4 mg/kg): 0 ± 0 mm3 | Average Tumor Size (mm3) ± SEM on Day 29 ([2]; 4 mg/kg): 0 ± 0 mm3 | Average Tumor Size (mm3) ± SEM on Day 34 ([2]; 4 mg/kg): 0 ± 0 mm3 | Average Tumor Size (mm3) ± SEM on Day 39 ([2]; 4 mg/kg): 0 ± 0 mm3 | Average Tumor Size (mm3) ± SEM on Day 42 ([2]; 4 mg/kg): 0 ± 0 mm3 | Average Tumor Size (mm3) ± SEM on Day 46 ([2]; 4 mg/kg): 0 ± 0 mm3 | Average Tumor Size (mm3) ± SEM on Day 55 ([2]; 4 mg/kg): 0 ± 0 mm3 | Average Tumor Size (mm3) ± SEM on Day 60 ([2]; 4 mg/kg): 0 ± 0 mm3 | Radiance [p/s/cm2^2/sr] 26 days post-implantation (mean ± SEM) [3]: 1.28E+06 ± 7.36E+05 p/s/cm2^2/sr | Radiance [p/s/cm2^2/sr] 31 days post-implantation (mean ± SEM) [3]: 1.98E+06 ± 1.36E+06 p/s/cm2^2/sr | Radiance [p/s/cm2^2/sr] 34 days post-implantation (mean ± SEM) [3]: 4.24E+06 ± 3.69E+06 p/s/cm2^2/sr | Radiance [p/s/cm2^2/sr] 38 days post-implantation (mean ± SEM) [3]: 3.21E+06 ± 2.52E+06 p/s/cm2^2/sr | Radiance [p/s/cm2^2/sr] 40 days post-implantation (mean ± SEM) [3]: 3.84E+06 ± 3.34E+06 p/s/cm2^2/sr | Radiance [p/s/cm2^2/sr] 47 days post-implantation (mean ± SEM) [3]: 7.34E+05 ± 2.62E+04 p/s/cm2^2/sr | Radiance [p/s/cm2^2/sr] 54 days post-implantation (mean ± SEM) [3]: 6.41E+05 ± 5.96E+04 p/s/cm2^2/sr | Radiance [p/s/cm2^2/sr] 61 days post-implantation (mean ± SEM) [3]: 6.03E+05 ± 5.29E+04 p/s/cm2^2/sr | tumor burden ([3]; three doses): reduced tumor burdens to background levels in the majority of animals | Radiance [p/s/cm2^2/sr] 5 days post-implantation (mean ± SEM) ([3]; before first dose (day 21)): 5.09E+05 ± 3.56E+04 p/s/cm2^2/sr | Radiance [p/s/cm2^2/sr] 11 days post-implantation (mean ± SEM) ([3]; before first dose (day 21)): 6.45E+05 ± 2.39E+04 p/s/cm2^2/sr | Radiance [p/s/cm2^2/sr] 20 days post-implantation (mean ± SEM) ([3]; before first dose (day 21)): 2.13E+06 ± 1.69E+05 p/s/cm2^2/sr

— patent US11919965B2, “Methods of treating multiple myeloma with bispecific anti-BCMA x anti-CD3 antibodies” (Regeneron Pharmaceuticals, Inc., priority 2019, dated 2024)
